{"source": "patent US9243037B2", "about": "“Gramicidin a mutants that function as antibiotics with improved solubility and reduced toxicity” (Trustees of Boston College, priority 2011, dated 2016)", "key": {"physchem": {"assay": "physchem", "assay_type": "physicochemical", "in_short": "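Peptide DMSO stock (6.0-8.0 mM) diluted 100-fold into 10 mM HEPES, pH 7.0, giving 1% DMSO; sonicated 30 min, centrifuged 14,000 rpm for 10 min. Supernatant concentration determined from tryptophan absorbance at 280 nm (ε=22760 M−1 cm-1).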"}, "HeLa": {"test_system": "HeLa", "assay": "MTT toxicity assay", "assay_type": "cell-based, human", "protocol": "(§1) Toxicity of gA-WT and gA-5 was tested against two human cancer cell lines, HeLa and MCF-7 (gifts from Professor Eranthie Weerapana at Boston College) by using the MTT assay as described in the protocol provided by Invitrogen.[5] HeLa cells (in DMEM high glucose media with 10% FBS, 1% Pen/Strep, 37° C., 5% CO2) and MCF-7 cells (in RPMI media with 10% FBS and 1% Pen/Strep, 37° C., 5% CO2) were grown to about 80% confluent before removed from the surface of a 20 cm petri-dish with […] with EDTA (3-5 mins, 37° C., 5% CO2). Cells were pelleted (3,500 rpm, 5 mins at 4° C.), and plated at 15,000 cells per well (100 μL per well), then incubated for 48 hrs before peptide addition.\n(§2) Stock solutions of gA in DMSO with varied concentrations were prepared so that for each peptide concentration the total volume of DMSO addition was kept constant at 1% (v/v). For each peptide concentration, samples were set up as four replicates. Control wells were loaded with 1 μL of DMSO. After overnight incubation, cells were washed once with PBS before being incubated for 4 hrs with 110 μL of 12 mM 3-(4,5-Dimethylthiazol-2-yl)-2,5-diphenyltetrazolium bromide (MTT) dissolved in RPMI media. The MTT assay was quenched with 100 μL of 10% SDS in 0.01 M HCl and allowed to incubate overnight before absorbance at 570 nm was recorded. Wells were averaged and standard deviations determined for each peptide concentration. Data were normalized to the DMSO control to give % cell survival (see FIG. 3)."}, "MCF-7": {"test_system": "MCF-7", "assay": "MTT toxicity assay", "assay_type": "cell-based, human", "protocol": "as §1, §2"}, "[1]": {"assay": "K+ leakage from liposomes", "assay_type": "biochemical", "settings": "FIG. 4B; in words", "protocol": "A chloroform solution containing 76 mg of POPC (for POPC LUVs) or a chloroform/meol (1/1) containing 38 mg of POPC and 38.5 mg POPG sodium salt (for POPC/POPG LUVs, POPC:POPG=1:1) was dried under reduced pressure to form a thin film, which was then […] with 2 mL aqueous buffer: (1) 10 mM HEPES, 150 mM KCl, pH 7.0 for K+ leakage assay; (2) 10 mM TES, 100 mM sodium citrate, 50 mM TbCl3, pH 7.0 for Tb3+ leakage assay; (3) 10 mM HEPES, 150 mM NaCl, pH 7.0 for peptide binding assay. After 20 cycles of freezing and thawing, the liposome suspension was extruded 21 times through a 100 nm polycarbonate membrane (LIPOSOFAST Mini Extrusion system, Avanti Polar Lipids; Whatman Nuclepore Track-Etch Membrane) at RT. Free K+ or Tb3+ were removed by gel filtration (ÄKTA FPLC with HIPREP™ 16/60 Sephacryl TM-S-500HR column) using Buffer A for (1) and (3) or Buffer B for (2) as the eluents. The lipid concentration was determined by the Stewart assay and the size of liposome was confirmed by Dynamic Light Scattering (DLS, DYNAPRO NANOSTAR, Wyatt, Santa Barbara, Calif.). After gel filtration the polydispersity of all liposome are below 20%.\nThe K+ leakage from liposomes was determined by a potassium ion selective electrode (K-ISE, Cole-Parmer, Vernon Hills, Ill.). […] Three minutes after each peptide addition, the K+ concentration was measured and reported as the K-ISE potential. […]"}}}
{"compound": "CC(C)C[C@@H](NC(=O)[C@H](C)NC(=O)CNC(=O)[C@@H](NC=O)C(C)C)C(=O)N[C@@H](C)C(=O)N[C@@H](C(=O)N[C@H](C(=O)N[C@@H](C(=O)N[C@@H](Cc1c[nH]c2ccccc12)C(=O)N[C@H](CCCCN)C(=O)N[C@@H](Cc1c[nH]c2ccccc12)C(=O)N[C@H](CCCCN)C(=O)N[C@@H](Cc1c[nH]c2ccccc12)C(=O)N[C@H](CCCCN)C(=O)N[C@@H](Cc1c[nH]c2ccccc12)C(=O)NCCO)C(C)C)C(C)C)C(C)C", "note": "(racemic) [gA-5, formyl-V-G-A-dL-A-dV-V-dV-W-dK-W-dK-W-dK-W-NHCH2CH2OH]", "values": [{"measurement": "solubility compared with the wild type", "setting": "physchem", "value": "three orders of magnitude"}, {"measurement": "water solubility, fold higher than wild-type Gramicidin A", "setting": "physchem", "value": "~1500", "unit": "fold"}, {"measurement": "solubility at 30 mins", "setting": "physchem; pH 7", "value": "~100", "unit": "µM"}, {"measurement": "toxicity, cell survival (MTT)", "setting": "HeLa", "value": "essentially unaffected"}, {"measurement": "toxicity, cell survival (MTT)", "setting": "MCF-7", "value": "essentially unaffected"}, {"measurement": "K+ leakage from negatively charged liposomes", "setting": "[1]", "value": "lack of K+ leakage"}]}
